Test results reported in patent US10344279B2, “Methods for the prevention and the treatment of extracapillary glomerulonephritis” (INSERM (Institut National de la Sante et de la Recherche …, priority 2014, dated 2019).

Experiments:
primary podocytes = test: Wound assay of podocyte migration; assay type: cell-based, mouse; details: Stattic 2 μM, migration within 12 hours
Procedure: After 4 days of primary culture, podocytes were trypsinized then plated into μ-Dish 35 mm high with Culture-Insert (Ibidi). Ibidi's wounding inserts were used for cell migration studies. The coverage of the 500-μm gap was assessed after 12 hours of culture and podocyte migration area was quantified using ImageJ software. The effects of HB-EGF (10 ng/mL, Preprotech) or AG1478 (1 μM, Calbiochem) or anti-mIL-6 monoclonal antibody MP5-20F3 (10 μg/mL, eBiosciences) or Stattic (2 μM, Calbiochem) on differentiated podocytes was applied during 16 hours. After stimulation, podocytes were scrapped in Phosphosafe buffer for protein extraction or in RLT buffer for total RNA extraction.

miR-92a [1] = test: miR-92a expression in kidney / isolated glomeruli of NTS-challenged mice (in situ hybridization, RT-qPCR); assay type: in vivo
Procedure: The glomerulonephritis was induced on male mice (10-12 weeks of age) by intravenous injection of 15 μL of sheep anti-glomerular basement membrane (GBM) nephrotoxic serum (NTS), which was diluted with 85 μL of sterile phosphate buffer solution. Serum injections were repeated twice (on days 2 and 3) at 6 μL/g of body weight and 7 μL/g respectively.
For miRNA expression analysis, RNA from kidney cortex were prepared with Trizol (Life Technologies) according to manufacturer's instructions. miRNA expression was determined using Taqman miRNA assay (Life technologies) according to manufacturer's protocols. U6 snRNA was used as endogenous control.
In situ hybridization was performed as previously described by Bonaucr et al (66). Briefly, 5 μm-thick kidney paraffin embedded sections were cut and fixed in PFA 4% for 10 min. Then sections were washed with 1× PBS and then acetylated for 10 min. After washes, sections were incubated with […] (Sigma-Aldrich) for 10 min. at 37° C. After washings, sections were incubated with hybridization buffer for 5 h at room temperature. miRNA probes (miR-92a probe double-DIG labeled LNA probes, Exiqon, final concentration 20 nM) was mixed with denaturation buffer and added to the sections followed by incubation over night at 56° C. U6snRNA probe (3′-DIG labeled LAN, probe, Exiqon) was used at 10 nM final concentration and as a positive control. […]

miR-92a [2] = test: RT-qPCR for miR-92a in transfected primary podocytes; assay type: cell-based, mouse; details: transfection with anti-miR-92a inhibitor (Ambion, 50 nM); normalized to U6
STAT3 = STAT3 protein level in anti-miR-92a transfected podocytes; assay type: cell-based, mouse; details: data not shown
Procedure: Anti-miR-Control#1 was used as control (All from Ambion, 50 nM).

p57 [3] = test: p57 protein expression in transfected podocytes (western blot, immunofluorescence); assay type: cell-based, mouse; details: anti-miR-92a transfected podocytes
Procedure: (§1) Deparaffinized kidney sections were incubated for 30 minutes at 95° C. in the target retrieval solution (S1699, Dako), then in peroxidase blocking reagent (S2001, Dako), blocked in PBS containing 5% BSA and immunostained against phospho-STAT3 (Tyr705) (Cell Signaling Technology) and phospho-STAT3 (Tyr705) (Millipore), STAT3 (Cell Signaling Technology), podocalyxin (R&D systems), Ki-67 (Abeam) and p57 (Santa Cruz Technology). […] For STAT3 and podocalyxin immunofluorescence, primary antibody incubation was followed by a secondary rabbit anti-goat IgG AF488-conjugated antibody (Invitrogen, 1:400) and a secondary rabbit anti-goat IgG AF594-conjugated antibody (Invitrogen, 1:400) respectively. Podocyte culture cells were immunostained against podocin (ab50339 Abeam), nephrin (ab58968 Abeam), WTI (ab15249 Abeam) or p57 (Santa Cruz Biotechnology). The nuclei were stained using DAPI. Images were obtained with an Axioimager Z1 apotome (Zeiss).
After extraction from glomeruli or podocytes with lysis buffer, proteins were quantified by BCA protein assay kit (iNtRON Biotechnology). Samples were resolved on 4-12% Bis-Tris Criterion XT gels (Bio-Rad) then transferred to a polyvinylidene difloride membrane. […] Protein loading was monitored by using the rat anti-tubulin antibody (Abeam). […] Densitometric analysis with ImageJ software was used for quantification. […]

p57 [4] = test: p57 immunostaining on kidney sections of NTS-challenged mice; assay type: in vivo; details: NTS-induced decrease; anti-miR-92a administration
Procedure: as §1
For preventive strategy, antagomiR treatment (12 mg/kg) started 3 days before NTS injection. AntagomiRs (VBC biotech, Vienna) were delivered by retro-orbital i.v. injections under brief anesthesia. Second and third injections were performed on days 1 and 3 with NTS injection. For curative strategy, antagomir were injected on days 4, 5 and 8 after NTS. A scramble antagomiR (Antagomir-Control) was used as control. […]

Compound | migratory phenotype of podocytes (primary podocytes) | migratory phenotype of podocytes (primary podocytes; listed as STAT3 inhibitor) | MicroRNA-92a expression in kidney (miR-92a [1]; NTS-challenged Pod-Stat3 WT animals treated with Stattic, in situ hybridization, confirmed by RT-qPCR) | miR-92a expression in isolated glomeruli during RPGN (miR-92a [1]; antagomiR 12 mg/kg i.v. retro-orbital, preventive strategy, 10 days after NTS) | miR-92a expression in primary culture of podocytes, change (miR-92a [2]) | STAT3 protein level (STAT3) | p57 expression (p57 [3]) | p57 expression in glomeruli (p57 [4])
O=[N+]([O-])c1ccc2c(c1)S(=O)(=O)C=C2 [Stattic] | inhibited | little or no effect | not increased |  |  |  |  | 
anti-miR-92a: 2′O-methylated, end-phosphorothioated antagomir with 3′ cholesterol-TEG, SEQ ID NO: 8, 5′-CAGGCCGGGACAAGUGCAAUA-3′ (VBC biotech) (listed as RNA, chemistry not fully specified) |  |  |  | specific inhibition | −71% | did not affect | increase | rescued
